Laboratory results as given in patent US4459294A, “Phosphoric and thiophosphoric esters of 5(3)-hydroxypyrazoles exerting an insecticidal action” (priority 1977, dated 1984).

Legend:
Pieris brassicae = assay: Biological activity on Pieris brassicae (Lepitoptera), 5-day old larvae; format: in vivo; conditions: 0.1 permill.; 48 hours after treatment
Experimental: Biological activity on Pieris brassicae (Lepitoptera)
Cut cauliflower leaves were sprinkled with an aqueous dispersion of the products under examination. After drying, the leaves were infested with 5-day old larvae. The percentage death rate of the larvae (untreated leaves=0) was determined 48 hours after treatment.

Spodoptera littoralis = assay: Biological activity on Spodoptera littoralis (Lepidoptera), 5-days old larvae; format: in vivo; conditions: 0.1 permill.; 48 hours after treatment
Experimental: Biological activity on Spodoptera littoralis (Lepidoptera)
Cut tobacco leaves were sprinkled with an aqueous dispersion of the products under examination. After drying, the leaves were infested with 5-days old larvae. The percentage mortality of the larvae was determined 48 hours after treatment (untreated leaves, mortality=0).

Culex pipiens larvae = assay: Biological activity on Culex pipiens (diptera) larvae; format: in vivo; conditions: 24 hours after treatment, read-out: percentage of reduction of the infestation (percentage death rate), Culex larvae
Experimental: Biological activity on Culex pipiens (diptera) larvae
Into glasses containing an aqueous dispersion of the products under examination, were introduced third and fourth age mosquito larvae. The percentage death rate of the larvae (glasses containing pure water=0) was determined 24 hours after treatment.

Culex pipiens adults = assay: Biological activity on Culex pipiens (Diptera): adults; format: in vivo; conditions: 0.2 g/m^2, 24 hours after beginning of treatment, read-out: percentage of reduction of the infestation (mortality percentage), Culex ad.
Experimental: Biological activity on Culex pipiens (Diptera): adults
Whatman n°1 paper rectangles were treated uniformly with an acetonic solution of the products under examination. After evaporation of the solvent, each treated paper rectangle was used to line the inside wall of a perspex cylinder (model OMS). The paper-lined perspex cylinder was then closed with a net after having introduced into it 2-3 days old adult females. After one hour from the start of the contact, the insects were transferred into a similar cylinder likewise lined with untreated paper, and were fed with a sugary solution.
The mortality percentage (untreated insects=0) was determined 24 hours after the beginning of the treatment.

Musca domestica = assay: Biological activity on Musca domestica (Diptera), topical application; format: in vivo; conditions: 0.5 γ/ins, 24 hours after treatment
Experimental: Biological activity on Musca domestica (Diptera)
4-days old adults were treated, by topical application by microsyringe, with an acetonic solution of the products under examination.
The mortality percentage (insects treated with acetone only=0) was determined 24 hours after the treatment.

[1] = tested on: Leptinatarsa decomlineata; assay: Biological activity on Leptinatarsa decomlineata (Coledptera), 4-day old larvae; format: in vivo; conditions: 0.1 permill.; 48 hours after treatment
Experimental: Biological activity on Leptinatarsa decomlineata (Coledptera)
Small, pot-grown potato-plants were infested with 4-day old larvae, and then were sprinkled with an aqueous dispersion of the products under examination. The percentage death rate (untreated plants=0) was determined 48 hours after treatment.

Macrosiphum euphorbiae = assay: Biological activity on Macrosiphum euphorbiae (aphides); format: in vivo; set-up: tested at 0.01 permill; conditions: 0.01 permill.; 24 hours after treatment
Experimental: Biological activity on Macrosiphum euphorbiae (aphides)
Small potato plants grown in pots were infested with adult female aphides and, after several hours, were sprinkled with an aqueous dispersion of the products under examination.
The percentage death rate was determined 24 hours after treatment (untreated plants=0).

Tetranychus urticae = assay: Biological activity on Tetranychus urticae (Acari) adults; format: in vivo; conditions: 0.01 permill.; 24 hours after treatment
Experimental: Biological Activity on Tetranychus urticae (Acari) adults
Small bean leaf discs were infected with adult acari and were then sprinkled with an aqueous dispersion of the products under examination. The percentage of mortality was determined 24 hours after the treatment (untreated discs, mortality=0).

Meloidogyne incognita = assay: Biological activity on Meloidogyne incognita (Nematoda); format: in vivo; conditions: 20 ppm; 21 days after transplanting
Experimental: Biological activity on Meloidogyne incognita (Nematoda)
Aliquot parts of a 1:1 mixture of field soil and sand, infested by Nematoda larvae and eggs, were treated by uniformly mixing same with an aqueous dispersion of the products under examination. The soil was then distributed into plastic pots, and after 5 days into each pot there were transplanted 5 tomato plants about 20 cm high. The survey of the results was carried out 21 days after the transplanting, by observing the roots of the plants extracted from the soil in order to ascertain the degree of infestation by counting the galls that have formed on them. The nematocide activity was expressed as a percentage of reduction of the infestation with respect to the witness plant (small plants transplanted into untreated soil, activity=0).

Blatta orientalis = assay: Biological activity on Blatta orientalis (Ortoptera); format: in vivo; conditions: 0.1 g/m^2, 48 hours after start of treatment, read-out: percentage of reduction of the infestation (percentage mortality), Blatta
Experimental: Biological activity on Blatta orientalis (Ortoptera)
The bottom and side walls of glass beakers were treated uniformly with an acetonic solution of the products under examination. After evaporation of the solvent in each beaker, into the same were then introduced ten, 80-100 days old neanides, whereafter they were closed with a lid of metal netting. After 24 hours from the beginning of the treatment, the insects were transferred into untreated glass beakers, and suitably nourished. The percentage mortality (untreated insects=0) was determined 48 hours after the start of the treatment.

Toxicity by os on rats = conditions: rat, in vivo, po
[2] = tested on: insects, acari and nematoda; assay: Pesticidal activity against insects, acari and nematoda (general statements); format: in vivo
Experimental: The pesticidal activity, verified by the methods described below in Example 12, is recorded below in the following Table 3 in comparison with that of "Pyrazothion".

| SMILES | percentage of reduction of the infestation (percentage death rate of larvae), Pieris B (Pieris brassicae) [%] | percentage of reduction of the infestation (percentage mortality of larvae), Spodoptera L (Spodoptera littoralis) [%] | mortality at 0.2 ppm (Culex pipiens larvae) [%] | mortality at 0.2 g/m2 (Culex pipiens adults) [%] | percentage of reduction of the infestation (mortality percentage), Musca d. (Musca domestica) [%] | percentage of reduction of the infestation (percentage death rate), Leptinot D. [1] [%] | percentage of reduction of the infestation (percentage death rate), Macrosiph. E. (Macrosiphum euphorbiae) [%] | percentage of reduction of the infestation (percentage of mortality), Tetran U. (Tetranychus urticae) [%] | percentage of reduction of the infestation, Meloidog. I. (Meloidogyne incognita) [%] | mortality at 0.1 g/m2 (Blatta orientalis) [%] | LD50 (Toxicity by os on rats) [mg/kg] | activity against Spodoptera, Culex, Musca, Leptinotarsa, Meloidogine incognita ([2]; Spodoptera, Culex, Musca, Leptinotarsa, Meloidogine incognita) | activity against insects, acari and nematoda ([2]; in vivo) |
| --- | --- | --- | --- | --- | --- | --- | --- | --- | --- | --- | --- | --- | --- |
| COP(=S)(OC)Oc1cc(Cl)nn1-c1ccccc1 [Compound 1, O,O-dimethyl-0-(1-phenyl-3-chloropyrazol-5-yl) thiophosphate] | 100 | 100 | 100 | 100 | 100 | 100 | 90 | 60 | 80 | 100 | 400 | – | – |
| COP(=S)(OC)Oc1cc(Cl)nn1C [Compound 14] | 100 | 82 | 100 | 100 | 100 | 37 | 96 | 100 | 41 | 100 | 560 | – | – |
| CCOP(=S)(OCC)Oc1cc(Cl)nn1C(C)C [Compound 5] | 100 | 60 | 100 | 100 | 100 | 100 | 100 | 100 | 90 | 100 | 22 | – | – |
| CCOP(=S)(OC)Oc1cc(Cl)nn1-c1ccccc1 (stereo not shown) [Compound 37] | 100 | 100 | 100 | 100 | 100 | 100 | 48 | 0 | 47 | 100 | 320 | – | – |
| CCOP(=S)(OCC)Oc1cc(Cl)nn1C [Compound 13] | 100 | 100 | 100 | 100 | 100 | 100 | 99 | 100 | 100 | 100 | 25 | – | – |
| CCOP(=S)(OCC)Oc1cc(C)[nH]n1 [Pyrazothion, diethyl-thiophosphoric ester of 3(5)-methyl-5(3)-hydroxypyrazole, reference compound] | 70 | 0 | 0 | 0 | 0 | 0 | 60 | 90 | 0 | 20 | 36 | ineffective | does not shown activity |
| CCOP(=S)(OC)Oc1cc(Cl)nn1C (stereo not shown) [Compound 23] | 100 | 100 | 100 | 100 | 100 | 100 | 92 | 100 | 100 | 100 | 487 | – | – |
